Experimental data as given in patent US20100099561A1, “HETEROBICYCLIC ALKYLTHIO-BRIDGED ISOXAZOLINES” (E.I. DU PONT DE NEMOURS AND COMPANY, priority 2008, published 2010).

Key:
Assay type in all cases: in vivo
[1] = tested on: catchweed bedstraw (Galium aparine); experiment: Test B preemergence, catchweed bedstraw; settings: scale 0 to 100
From the text: (§1) Seeds of plant species selected from blackgrass (Alopecurus myosuroides), downy bromegrass (Bromus tectorum), green foxtail (Setaria viridis), Italian ryegrass (Lolium multiflorum), wheat (Triticum aestivum), wild oat (Avena fatua), catchweed bedstraw (Galium aparine), bermudagrass (Cynodon dactylon), Surinam grass (Brachiaria decumbens), cocklebur (Xanthium strumarium), corn (Zea mays), large crabgrass (Digitaria sanguinalis), woolly cupgrass (Eriochloa villosa), giant foxtail (Setaria faberii), goosegrass (Eleusine indica), johnsongrass (Sorghum halepense), kochia (Kochia scoparia), lambsquarters (Chenopodium album), morningglory (Ipomoea coccinea), nightshade (eastern black nightshade, Solanum ptycanthum), yellow nutsedge (Cyperus esculentus), pigweed (Amaranthus retroflexus), ragweed (common ragweed, Ambrosia elatior), soybean (Glycine max), sunflower (common oilseed sunflower, Helianthus annuus), Russian thistle (Salsola kali), and velvetleaf (Abutilon theophrasti) were planted into a blend of loam soil and sand and treated preemergence with test compounds formulated in a non-phytotoxic solvent mixture which included a surfactant. Treated plants and controls were maintained in a greenhouse for 13 to 15 days, after which time all species were compared to controls and visually evaluated. Plant response ratings, summarized in Table B, are based on a scale of 0 to 100 where 0 is no effect and 100 is complete control. A dash (-) response means no test result.

[2] = tested on: large crabgrass (Digitaria sanguinalis); experiment: Test B preemergence, large crabgrass; settings: scale 0 to 100
From the text: as §1

[3] = tested on: cocklebur (Xanthium strumarium); experiment: Test B preemergence, cocklebur; settings: scale 0 to 100
From the text: as §1

[4] = tested on: pigweed (Amaranthus retroflexus); experiment: Test A postemergence, pigweed; settings: 0 to 100 scale (0 no effect, 100 complete control)
Outline: (§2)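 Species planted together in a loam soil and sand blend received compound either as a preemergence soil spray or as a postemergence treatment when 2–10 cm tall with one to two leaves. About ten days later, injury was visually rated relative to untreated plants on a 0–100 scale.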

[5] = tested on: sunflower (common oilseed sunflower, Helianthus annuus); experiment: Test B preemergence, sunflower; settings: Preemergence, scale 0 to 100
From the text: as §1

[6] = tested on: giant foxtail (Setaria faberi); experiment: Test A postemergence, giant foxtail; settings: 0 to 100 scale (0 no effect, 100 complete control)
Outline: as §2

[7] = tested on: morningglory (Ipomoea spp.); experiment: Test A postemergence, morningglory; settings: 0 to 100 scale (0 no effect, 100 complete control)
Outline: as §2

[8] = tested on: wheat (Triticum aestivum); experiment: Test B preemergence, wheat; settings: Preemergence, scale 0 to 100
From the text: as §1

[9] = tested on: velvetleaf (Abutilon theophrasti); experiment: Test B preemergence, velvetleaf; settings: Preemergence, scale 0 to 100
From the text: as §1

[10] = tested on: ragweed (common ragweed, Ambrosia elatior); experiment: Test B preemergence, ragweed; settings: scale 0 to 100
From the text: as §1

[11] = tested on: wild oat (Avena fatua); experiment: Test B preemergence, wild oat; settings: scale 0 to 100
From the text: as §1

[12] = tested on: giant foxtail (Setaria faberi); experiment: Test A preemergence, giant foxtail; settings: 0 to 100 scale (0 no effect, 100 complete control)
Outline: as §2

[13] = tested on: blackgrass (Alopecurus myosuroides); experiment: Test B preemergence, blackgrass; settings: scale 0 to 100
From the text: as §1

[14] = tested on: yellow nutsedge (Cyperus esculentus); experiment: Test B preemergence, yellow nutsedge; settings: scale 0 to 100
From the text: as §1

[15] = tested on: pigweed (Amaranthus retroflexus); experiment: Test B preemergence, pigweed; settings: scale 0 to 100
From the text: as §1

[16] = tested on: green foxtail (Setaria viridis); experiment: Test B preemergence, green foxtail; settings: scale 0 to 100
From the text: as §1

[17] = tested on: corn (Zea mays); experiment: Test A postemergence, corn; settings: 0 to 100 scale (0 no effect, 100 complete control)
Outline: as §2

[18] = tested on: downy bromegrass (Bromus tectorum); experiment: Test B preemergence, downy bromegrass; settings: scale 0 to 100
From the text: as §1

[19] = tested on: woolly cupgrass (Eriochloa villosa); experiment: Test B preemergence, woolly cupgrass; settings: scale 0 to 100
From the text: as §1

[20] = tested on: goosegrass (Eleusine indica); experiment: Test B preemergence, goosegrass; settings: scale 0 to 100
From the text: as §1

CC1(C)CC(S(=O)(=O)Cc2c(C(F)(F)F)nc3ccsn3c2=O)=NO1 [Compound 16]
Plant response rating, Galium ([1]; 16 g ai/ha): 0 | Plant response rating, Galium ([1]; 31 g ai/ha): 0 | Plant response rating, Galium ([1]; 62 g ai/ha): 0 | Plant response rating, Galium ([1]; 125 g ai/ha): 70 | Plant response rating, Crabgrass, Large ([2]; 16 g ai/ha): 70 | Plant response rating, Crabgrass, Large ([2]; 31 g ai/ha): 95 | Plant response rating, Crabgrass, Large ([2]; 62 g ai/ha): 100 | Plant response rating, Crabgrass, Large ([2]; 125 g ai/ha): 100 | Plant response rating, Cocklebur ([3]; 16 g ai/ha): 0 | Plant response rating, Cocklebur ([3]; 31 g ai/ha): 0 | Plant response rating, Cocklebur ([3]; 62 g ai/ha): 0 | Plant response rating, Cocklebur ([3]; 125 g ai/ha): 0 | Plant response rating, Pigweed ([4]; 125 g ai/ha): 10 | Plant response rating, Pigweed ([4]; 500 g ai/ha): 50 | Plant response rating, Sunflower ([5]; 16 g ai/ha): 0 | Plant response rating, Sunflower ([5]; 31 g ai/ha): 0 | Plant response rating, Sunflower ([5]; 62 g ai/ha): 0 | Plant response rating, Sunflower ([5]; 125 g ai/ha): 0 | Plant response rating, Foxtail, Giant ([6]; 125 g ai/ha): 80 | Plant response rating, Foxtail, Giant ([6]; 500 g ai/ha): 90 | Plant response rating, Morningglory ([7]; 125 g ai/ha): 0 | Plant response rating, Morningglory ([7]; 500 g ai/ha): 50 | Plant response rating, Wheat ([8]; 16 g ai/ha): 0 | Plant response rating, Wheat ([8]; 31 g ai/ha): 0 | Plant response rating, Wheat ([8]; 62 g ai/ha): 0 | Plant response rating, Wheat ([8]; 125 g ai/ha): 0 | Plant response rating, Velvetleaf ([9]; 16 g ai/ha): 0 | Plant response rating, Velvetleaf ([9]; 31 g ai/ha): 0 | Plant response rating, Velvetleaf ([9]; 62 g ai/ha): 0 | Plant response rating, Velvetleaf ([9]; 125 g ai/ha): 0 | Plant response rating, Ragweed ([10]; 16 g ai/ha): 0 | Plant response rating, Ragweed ([10]; 31 g ai/ha): 0 | Plant response rating, Ragweed ([10]; 62 g ai/ha): 0 | Plant response rating, Ragweed ([10]; 125 g ai/ha): 0 | Plant response rating, Oat, Wild ([11]; 16 g ai/ha): 0 | Plant response rating, Oat, Wild ([11]; 31 g ai/ha): 20 | Plant response rating, Oat, Wild ([11]; 62 g ai/ha): 30 | Plant response rating, Oat, Wild ([11]; 125 g ai/ha): 60 | Plant response rating, Foxtail, Giant ([12]; 125 g ai/ha): 90 | Plant response rating, Foxtail, Giant ([12]; 500 g ai/ha): 90 | Plant response rating, Blackgrass ([13]; 16 g ai/ha): 10 | Plant response rating, Blackgrass ([13]; 31 g ai/ha): 85 | Plant response rating, Blackgrass ([13]; 62 g ai/ha): 90 | Plant response rating, Blackgrass ([13]; 125 g ai/ha): 100 | Plant response rating, Nutsedge, Yellow ([14]; 16 g ai/ha): 0 | Plant response rating, Nutsedge, Yellow ([14]; 31 g ai/ha): 0 | Plant response rating, Nutsedge, Yellow ([14]; 62 g ai/ha): 0 | Plant response rating, Nutsedge, Yellow ([14]; 125 g ai/ha): 0 | Plant response rating, Pigweed ([15]; 31 g ai/ha): 0 | Plant response rating, Pigweed ([15]; 62 g ai/ha): 0 | Plant response rating, Pigweed ([15]; 125 g ai/ha): 100 | Plant response rating, Foxtail, Green ([16]; 16 g ai/ha): 0 | Plant response rating, Foxtail, Green ([16]; 31 g ai/ha): 20 | Plant response rating, Foxtail, Green ([16]; 62 g ai/ha): 85 | Plant response rating, Foxtail, Green ([16]; 125 g ai/ha): 98 | Plant response rating, Corn ([17]; 125 g ai/ha): 0 | Plant response rating, Corn ([17]; 500 g ai/ha): 0 | Plant response rating, Bromegrass, Downy ([18]; 16 g ai/ha): 0 | Plant response rating, Bromegrass, Downy ([18]; 31 g ai/ha): 0 | Plant response rating, Bromegrass, Downy ([18]; 62 g ai/ha): 0 | Plant response rating, Bromegrass, Downy ([18]; 125 g ai/ha): 30 | Plant response rating, Cupgrass, Woolly ([19]; 16 g ai/ha): 0 | Plant response rating, Cupgrass, Woolly ([19]; 31 g ai/ha): 25 | Plant response rating, Cupgrass, Woolly ([19]; 62 g ai/ha): 95 | Plant response rating, Cupgrass, Woolly ([19]; 125 g ai/ha): 98 | Plant response rating, Goosegrass ([20]; 16 g ai/ha): 85 | Plant response rating, Goosegrass ([20]; 31 g ai/ha): 95 | Plant response rating, Goosegrass ([20]; 62 g ai/ha): 100 | Plant response rating, Goosegrass ([20]; 125 g ai/ha): 100
